Data as given in patent publication US20050026785A1, “Novel phenyl-propargylether derivatives” (priority 2001, published 2005).

Key:
Format in all cases: in vivo
Phytophthora [1] = assay: D-3a Residual-protective action against Phytophthora on potato plants; conditions: test D-3a residual-protective, potato plants (Bintje), untreated plants showed pathogen attack of 80-100%, read-out: inhibition of fungal infestation
Description: (§1) D-3: Action against Phytophthora on potato plants
(§2) a) Residual-protective action
(§3) 2-3 week old potato plants (Bintje variety) are sprayed with a spray mixture (0.02% active ingredient) prepared from a wettable powder formulation of the test compound. After 48 hours, the treated plants are infected with a sporangia suspension of the fungus. Fungus infestation is evaluated after incubation of the infected plants for 4 days at 90-100% relative humidity and +20° C.

Plasmopara viticola [2] = assay: D-1b Residual-curative action against Plasmopara viticola on vines; conditions: test D-1b residual-curative, vine seedlings, untreated plants showed pathogen attack of 80-100%, read-out: inhibition of fungal infestation
Description: (§4) D-1: Action against Plasmopara viticola on vines
b) Residual-Curative Action
Vine seedlings are infected at the 4- to 5-leaf stage with a sporangia suspension of the fungus. After incubation for 24 hours in a humidity chamber at 95-100% relative humidity and +20° C., the infected plants are dried and sprayed with a spray mixture (0.02% active ingredient) prepared from a wettable powder formulation of the test compound. After the spray coating has dried, the treated plants are placed in the humidity chamber again. Fungus infestation is evaluated 6 days after infection.

Phytophthora [3] = assay: D-3b Systemic action against Phytophthora on potato plants; conditions: test D-3b systemic (soil watering), potato plants (Bintje), untreated plants showed pathogen attack of 80-100%, read-out: inhibition of fungal infestation
Description: as §1
as §3, with “watered” for “sprayed”, “ingredient based on the volume of the soil)” for “ingredient)”, “compound. […]” for “compound.”, “C. Fungal infestation is effectively controlled with compounds of Tables 1 to 31.” for “C.”

Phytophthora [4] = assay: D-2a Residual-protective action against Phytophthora on tomato plants; conditions: test D-2a residual-protective, untreated plants showed pathogen attack of 80-100%, read-out: inhibition of fungal infestation
Description: (§5) D-2: Action against Phytophthora on tomato plants
as §2
(§6) After a cultivation period of 3 weeks, tomato plants are sprayed with a spray mixture (0.02% active ingredient) prepared from a wettable powder formulation of the test compound. After 48 hours, the treated plants are infected with a sporangia suspension of the fungus. Fungus infestation is evaluated after incubation of the infected plants for 5 days at 90-100% relative humidity and +20° C.

Phytophthora [5] = assay: D-2b Systemic action against Phytophthora on tomato plants; conditions: test D-2b systemic (soil watering), untreated plants showed pathogen attack of 80-100%, read-out: inhibition of fungal infestation
Description: as §5
as §6, with “watered” for “sprayed”, “ingredient based on the volume of the soil)” for “ingredient)”, “compound. […]” for “compound.”, “96” for “48”, “4” for “5”

Plasmopara viticola [6] = assay: D-1a Residual-protective action against Plasmopara viticola on vines; conditions: test D-1a residual-protective, vine seedlings, untreated plants showed pathogen attack of 80-100%, read-out: inhibition of fungal infestation
Description: as §4, §2
Vine seedlings are sprayed at the 4- to 5-leaf stage with a spray mixture (0.02% active ingredient) prepared from a wettable powder formulation of the test compound. After 24 hours, the treated plants are infected with a sporangia suspension of the fungus. Fungus infestation is evaluated after incubation for 6 days at 95-100% relative humidity and +20° C.

Measured: inhibition at 200 ppm

C#CCOc1ccc(CCNC(=O)[C@@H](OCC#C)c2ccccc2)cc1OC [Compound E1.002, (S)-2-phenyl-N-[2-(3-methoxy-4-prop-2-ynyloxy-phenyl)-ethyl]-2-prop-2-ynyloxy-acetamide]
80 to 100%: all assays above

C#CCOc1ccc(CCNC(=O)[C@@H](OCC#C)c2ccc(Cl)cc2)cc1OC [Compound E1.011, (S)-2-(4-chloro-phenyl)-N-[2-(3-methoxy-4-prop-2-ynyloxy-phenyl)-ethyl]-2-prop-2-ynyloxy-acetamide]
80 to 100%: all assays above

CCC#CCOc1ccc(CCNC(=O)[C@@H](OCC)c2ccccc2)cc1OC [Compound E1.151]
80 to 100%: Phytophthora [4] | Phytophthora [5]
